Laboratory results reported in US11034718B2, “C-3 novel triterpenone with C-17 reverse amide derivatives as HIV inhibitors” (HETERO LABS LIMITED, priority 2015, dated 2021).
pIC50: −log10 of the molar value. Counter-ions that a name gives are not always drawn. Like-named read-outs stand apart in the source and are kept apart here.

System: HIV-1 strain 92HT599
Assay: Antiviral activity against HIV-1 strain 92HT599 in MT2 cells (p24 estimation)
Assay type: cell-based
Settings: HIV-1 92HT599, ~96 hours
Method: Example 77: Evaluation of Compounds Antiviral Activity Against HIV-1 Strain 92HT599 in MT2 Cells
MT2 cells were infected with HIV-1 strain 92HT599 (10 TCID 50/30000 cells). The infected cells were plated at the concentration of 30,000 cells per well in 96 well plate. Test compound was added to the micro plate in defined format with the final concentration of DMSO (vehicle) is not more than 1%. Incubation was carried out in CO2 incubator for ˜96 hours for viral infection. At the end of incubation period an aliquot from each well was taken for p24 estimation. The quantitation of p24 is an index for antiviral activity of the compound. Percent inhibition was calculated with reference to control values (vehicle controls). p24 estimation was carried out using Advance biosciences kit as per the procedure detailed by supplier.

[1] = Human immunodeficiency virus 1, 0% serum binding assay, read-out: IC50 0% serum
[2] = Human immunodeficiency virus 1, 40% serum binding assay, read-out: IC50 40% serum

Row | Structure (SMILES) | pIC50 [1] | pIC50 [2]
1 | CC(C)C1=C2[C@H]3CC[C@@H]4[C@@]5(C)CC[C@H](OC(=O)[C@@H]6C[C@H](C(=O)O)C6(C)C)C(C)(C)[C@@H]5CC[C@@]4(C)[C@]3(C)CC[C@@]2(NC(=O)C(C)(C)NC(=O)c2ccc(Cl)cc2)CC1=O [Example 21, (1S,3R)-3-((((3aR,5aR,5bR,7aR,9S,11aR,11bR,13aS)-3a-(2-(4-chlorobenzamido)-2-methylpropanamido)-1-isopropyl-5a,5b,8,8,11a-pentamethyl-2-oxo-3,3a,4,5,5a,5b,6,7,7a,8,9,10,11,11a,11b,12,13,13a-octadecahydro-2H-cyclopenta[a]chrysen-9-yl)oxy)carbonyl)-2,2-dimethylcyclobutane-1-carboxylic acid] | 8.00 to 8.52 | > 7.30
2 | CC(C)C1=C2[C@H]3CC[C@@H]4[C@@]5(C)CC[C@H](OC(=O)[C@H]6C[C@@H](C(=O)O)C6(C)C)C(C)(C)[C@@H]5CC[C@@]4(C)[C@]3(C)CC[C@@]2(NC(=O)C(C)(C)NC(=O)c2ccc(F)cc2)CC1=O [Example 22, (1R,3S)-3-((((3aR,5aR,5bR,7aR,9S,11aR,11bR,13aS)-3a-(2-(4-fluorobenzamido)-2-methylpropanamido)-1-isopropyl-5a,5b,8,8,11a-pentamethyl-2-oxo-3,3a, 4,5,5a,5b,6,7,7a,8,9,10,11,11a,11b,12,13,13a-octadecahydro-2H-cyclopenta[a]chrysen-9-yl)oxy)carbonyl)-2,2-dimethylcyclobutane-1-carboxylic acid] | > 8.52 | > 7.30
3 | Cc1ccc(C(=O)NC(C)(C)C(=O)N[C@@]23CC[C@]4(C)[C@H](CC[C@@H]5[C@@]6(C)CC[C@H](OC(=O)[C@H]7C[C@@H](C(=O)O)C7(C)C)C(C)(C)[C@@H]6CC[C@]54C)C2=C(C(C)C)C(=O)C3)cc1 [Example 23, (1R,3S)-3-((((3aR,5aR,5bR,7aR,9S,11aR,11bR,13aS)-1-isopropyl-5a,5b,8,8,11a-pentamethyl-3a-(2-methyl-2-(4-methylbenzamido)propanamido)-2-oxo-3,3a,4,5,5a,5b,6,7,7a,8,9,10,11,11a,11b,12,13,13a-octadecahydro-2H-cyclopenta[a]chrysen-9-yl)oxy)carbonyl)-2,2-dimethylcyclobutane-1-carboxylic acid] | > 8.52 | > 7.30
4 | CC(C)C1=C2[C@H]3CC[C@@H]4[C@@]5(C)CC[C@H](OC(=O)[C@H]6C[C@@H](C(=O)O)C6(C)C)C(C)(C)[C@@H]5CC[C@@]4(C)[C@]3(C)CC[C@@]2(NC(=O)C(C)(C)NC(=O)c2ccoc2)CC1=O [Example 24, (1R,3S)-3-((((3aR,5aR,5bR,7aR,9S,11aR,11bR,13aS)-3a-(2-(furan-3-carboxamido)-2-methylpropanamido)-1-isopropyl-5a,5b, 8,8,11a-pentamethyl-2-oxo-3,3a,4,5,5a,5b,6,7,7a,8,9,10,11,11a,11b,12,13,13a-octadecahydro-2H-cyclopenta[a]chrysen-9-yl)oxy)carbonyl)-2,2-dimethylcyclobutane-1-carboxylic acid] | > 8.52 | 6.70 to 7.30
5 | CC(C)C1=C2[C@H]3CC[C@@H]4[C@@]5(C)CC[C@H](OC(=O)[C@H]6C[C@@H](C(=O)O)C6(C)C)C(C)(C)[C@@H]5CC[C@@]4(C)[C@]3(C)CC[C@@]2(NC(=O)C(C)(C)NC(=O)c2ccco2)CC1=O [Example 26, (1R,3S)-3-((((3aR,5aR,5bR,7aR,9S,11aR,11bR,13aS)-3a-(2-(furan-2-carboxamido)-2-methylpropanamido)-1-isopropyl-5a,5b,8,8,11a-pentamethyl-2-oxo-3,3a,4,5,5a,5b,6,7,7a,8,9,10,11,11a,11b,12,13,13a-octadecahydro-2H-cyclopenta[a]chrysen-9-yl)oxy)carbonyl)-2,2-dimethylcyclobutane-1-carboxylic acid] | > 8.52 | 6.70 to 7.30
6 | CC(C)C1=C2[C@H]3CC[C@@H]4[C@@]5(C)CC[C@H](OC(=O)[C@H]6C[C@@H](C(=O)O)C6(C)C)C(C)(C)[C@@H]5CC[C@@]4(C)[C@]3(C)CC[C@@]2(NC(=O)C(C)(C)NC(=O)C2(c3ccccc3)CCCC2)CC1=O [Example 27, (1R,3S)-3-((((3aR,5aR,5bR,7aR,9S,11aR,11bR,13aS)-1-isopropyl-5a,5b,8,8,11a-pentamethyl-3a-(2-methyl-2-(1-phenylcyclopentane-1-carboxamido)propanamido)-2-oxo-3,3a,4,5,5a,5b,6,7,7a,8,9,10,11,11a,11b,12,13,13a-octadecahydro-2H-cyclopenta[a]chrysen-9-yl)oxy)carbonyl)-2,2-dimethylcyclobutane-1-carboxylic acid] | 8.00 to 8.52 | 6.70 to 7.30
7 | CC(C)C1=C2[C@H]3CC[C@@H]4[C@@]5(C)CC[C@H](OC(=O)[C@H]6C[C@@H](C(=O)O)C6(C)C)C(C)(C)[C@@H]5CC[C@@]4(C)[C@]3(C)CC[C@@]2(NC(=O)C(C)(C)NC(=O)C2CCNCC2)CC1=O [Example 35, (1R,3S)-3-((((3aR,5aR,5bR,7aR,9S,11aR,11bR,13aS)-1-isopropyl-5a,5b,8,8,11a-pentamethyl-3a-(2-methyl-2-(piperidine-4-carboxamido)propanamido)-2-oxo-3,3a,4,5,5a,5b,6,7,7a,8,9,10,11,11a,11b,12,13,13a-octadecahydro-2H-cyclopenta[a]chrysen-9-yl)oxy)carbonyl)-2,2-dimethylcyclobutane-1-carboxylic acid hydrochloride] | < 8.00 | < 6.70
8 | CC(C)C1=C2[C@H]3CC[C@@H]4[C@@]5(C)CC[C@H](OC(=O)[C@H]6C[C@@H](C(=O)O)C6(C)C)C(C)(C)[C@@H]5CC[C@@]4(C)[C@]3(C)CC[C@@]2(NC(=O)C(C)(C)NC(=O)[C@@H](N)C(C)C)CC1=O [Example 36, (1R,3S)-3-((((3aR,5aR,5bR,7aR,9S,11aR,11bR,13aS)-3a-(2-((S)-2-amino-3-methylbutanamido)-2-methylpropanamido)-1-isopropyl-5a,5b,8,8,11a-pentamethyl-2-oxo-3,3a,4,5,5a,5b,6,7,7a,8,9,10,11,11a,11b,12,13,13a-octadecahydro-2H-cyclopenta[a]chrysen-9-yl)oxy)carbonyl)-2,2-dimethylcyclobutane-1-carboxylic acid hydrochloride] | > 8.52 | 6.70 to 7.30
9 | Cc1ccc(C(=O)NC2(C(=O)N[C@@]34CC[C@]5(C)[C@H](CC[C@@H]6[C@@]7(C)CC[C@H](OC(=O)[C@H]8C[C@@H](C(=O)O)C8(C)C)C(C)(C)[C@@H]7CC[C@]65C)C3=C(C(C)C)C(=O)C4)CCC2)cn1 [Example 43, (1R,3S)-3-((((3aR,5aR,5bR,7aR,9S,11aR,11bR,13aS)-1-isopropyl-5a,5b,8,8,11a-pentamethyl-3a-(1-(6-methylnicotinamido)cyclobutane-1-carboxamido)-2-oxo-3,3a,4,5,5a,5b,6,7,7a,8,9,10,11,11a,11b,12,13,13a-octadecahydro-2H-cyclopenta[a]chrysen-9-yl)oxy)carbonyl)-2,2-dimethylcyclobutane-1-carboxylic acid] | > 8.52 | > 7.30
10 | CC(C)C1=C2[C@H]3CC[C@@H]4[C@@]5(C)CC[C@H](OC(=O)[C@H]6C[C@@H](C(=O)O)C6(C)C)C(C)(C)[C@@H]5CC[C@@]4(C)[C@]3(C)CC[C@@]2(NC(=O)C2(NC(=O)c3ccc(Cl)cc3)CCCC2)CC1=O [Example 46, (1R,3S)-3-((((3aR,5aR,5bR,7aR,9S,11aR,11bR,13aS)-3a-(1-(4-chlorobenzamido)cyclopentane-1-carboxamido)-1-isopropyl-5a,5b,8,8,11a-pentamethyl-2-oxo-3,3a,4,5,5a,5b,6,7,7a,8,9,10,11,11a,11b,12,13,13a-octadecahydro-2H-cyclopenta[a]chrysen-9-yl)oxy)carbonyl)-2,2-dimethylcyclobutane-1-carboxylic acid] | > 8.52 | > 7.30
11 | CC(C)C1=C2[C@H]3CC[C@@H]4[C@@]5(C)CC[C@H](OC(=O)[C@H]6C[C@@H](C(=O)O)C6(C)C)C(C)(C)[C@@H]5CC[C@@]4(C)[C@]3(C)CC[C@@]2(NC(=O)C2(NC(=O)c3ccc(Cl)cc3)CCCCC2)CC1=O [Example 48, (1R,3S)-3-((((3aR,5aR,5bR,7aR,9S,11aR,11bR,13aS)-3a-(1-(4-chlorobenzamido)cyclohexane-1-carboxamido)-1-isopropyl-5a,5b,8,8,11a-pentamethyl-2-oxo-3,3a,4,5,5a,5b,6,7,7a,8,9,10,11,11a,11b,12,13,13a-octadecahydro-2H-cyclopenta[a]chrysen-9-yl)oxy)carbonyl)-2,2-dimethylcyclobutane-1-carboxylic acid] | > 8.52 | > 7.30
12 | Cc1ccc(C(=O)NC2(C(=O)N[C@@]34CC[C@]5(C)[C@H](CC[C@@H]6[C@@]7(C)CC[C@H](OC(=O)[C@H]8C[C@@H](C(=O)O)C8(C)C)C(C)(C)[C@@H]7CC[C@]65C)C3=C(C(C)C)C(=O)C4)CCCCC2)cn1 [Example 49, (1R,3S)-3-((((3aR,5aR,5bR,7aR,9S,11aR,11bR,13aS)-1-isopropyl-5a,5b,8,8,11a-pentamethyl-3a-(1-(6-methylnicotinamido)cyclohexane-1-carboxamido)-2-oxo-3,3a,4,5,5a,5b,6,7,7a,8,9,10,11,11a,11b,12,13,13a-octadecahydro-2H-cyclopenta[a]chrysen-9-yl)oxy)carbonyl)-2,2-dimethylcyclobutane-1-carboxylic acid] | > 8.52 | > 7.30
